Measurements taken from US20070105864A1, “Methods for inhibiting protein kinases” (Schering Corporation, priority 2005, published 2007).

Legend:
recombinant His-CHK1 = biological target: T1, recombinant His-CHK1 (Homo sapiens, UniProt O14757); assay: CHK1 SPA Assay; assay type: biochemical; settings: read-out: CHK-1 IC50
T1 construct: His-CHK1, In House Lot P976, MW ˜30 KDa, stored at −80 °C; fused on or other part: His tag
T1 sequence (O14757 1-265 limits assumed): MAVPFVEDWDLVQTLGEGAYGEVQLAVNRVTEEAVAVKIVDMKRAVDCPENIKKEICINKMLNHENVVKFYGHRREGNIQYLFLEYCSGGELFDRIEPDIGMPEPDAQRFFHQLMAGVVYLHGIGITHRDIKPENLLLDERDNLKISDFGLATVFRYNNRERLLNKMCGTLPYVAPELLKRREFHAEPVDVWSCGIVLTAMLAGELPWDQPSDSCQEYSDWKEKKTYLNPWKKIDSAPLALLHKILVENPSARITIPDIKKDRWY
Experimental: An in vitro assay was developed that utilizes recombinant His-CHK1 expressed in the baculovirus expression system as an enzyme source and a biotinylated peptide based on CDC25C as substrate (biotin-[…]).
1) CDC25C Ser 216 C-term Biotinylated peptide substrate (25 mg), stored at −20 °C, Custom Synthesis by Research Genetics: biotin-[…] 2595.4 MW
2) His-CHK1 In House lot P976, 235 ug/mL, stored at −80 °C.
1) Kinase Buffer: 50 mM Tris pH 8.0; 10 mM MgCl2; 1 mM DTT
2) His-CHK1, In House Lot P976, MW ˜30 KDa, stored at −80 °C. […] For 1 plate (100 r×n): dilute 8 μL of 235 μg/mL (7.83 uM) stock in 2 mL Kinase Buffer. This makes a 31 nM mixture. Add 20 μL/well. This makes a final reaction concentration of 6 nM.
3) CDC25C Biotinylated peptide.
Dilute CDC25C to 1 mg/mL (385 uM) stock and store at −20° C. For 1 plate (100 r×n): dilute 10 1L of 1 mg/mL peptide stock in 2 ml Kinase Buffer. This gives a 1.925 μM mix. Add 20 1L/r×n. This makes a final reaction concentration of 385 nM.
For 1 plate (100 r×n): dilute 10 μL of 1 mM ATP (cold) stock and 2 uL fresh P33-ATP (20 μCi) in 5 ml Kinase Buffer. This gives a 2 μM ATP (cold) solution; add 50 μl/well to start the reaction. Final volume is 100 μl/r×n so the final reaction concentrations will be 1 μM ATP (cold) and 0.2 uCi/r×n.
For 1 plate add: To 10 mL Wash Buffer 2 (2M NaCl 1% H3PO4): 1 mL SPA bead slurry (50 mg); Add 100 μL/well
6) Wash buffer 1: 2 M NaCl
7) Wash buffer 2: 2 M NaCl, 1% H3PO4
Dispense 10 μl/r×n to appropriate wells. Add 10 μL 10% DMSO to positive (CHK1+CDC25C+ATP) and negative (CHK1+ATP only) control wells. 2) Thaw enzyme on ice—dilute enzyme to proper concentration in kinase buffer (see Reaction Mixtures) and dispense 20 μl to each well. 3) Thaw the Biotinylated substrate on ice and dilute in kinase buffer (see Reaction Mixtures). Add 20 μL/well except to negative control wells. Instead, add 20 uL Kinase Buffer to these wells. 4) Dilute ATP (cold) and P33-ATP in kinase buffer (see Reaction Mixtures). Add 50 μL/well to start the reaction. 5) Allow the reaction to run for 2 hours at room temperature. 6) Stop reaction by adding 100 uL of the SPA beads/stop solution (see Reaction Mixtures) and leave to incubate for 15 minutes before harvest 7) Place a blank Packard GF/B filter plate into the vacuum filter device (Packard plate harvester) and aspirate […] water through to wet the system. 8) Take out the blank and put in the Packard GF/B filter plate. 9) Aspirate the reaction through the filter plate. 10) Wash: 200 ml each wash; 1× with 2M NaCl; 1× with 2M NaCl/1% H3PO4 11) Allow filter plate to dry 15 min. 12) Put TopSeal-A adhesive on top of filter plate. 13) Run filter plate in Top Count
Settings: • Data mode: CPM • Radio nuclide: Manual SPA:P33 • Scintillator: Liq/plast • Energy Range: Low
(§1) IC50 DETERMINATIONS: Dose-response curves were plotted from inhibition data generated, each in duplicate, from 8 point serial dilutions of inhibitory compounds. Concentration of compound was plotted against % kinase activity, calculated by CPM of treated samples divided by CPM of untreated samples. To generate IC50 values, the dose-response curves were then fitted to a standard sigmoidal curve and IC50 values were derived by nonlinear regression analysis.

Cyclin E/CDK2 = biological target: T2, Cyclin E/CDK2 (Homo sapiens, UniProt P24941); assay: CDK2 Assay (Cyclin E/CDK2 in vitro kinase assay); assay type: biochemical; settings: read-out: CDK2 IC50
T2 construct: made in house; host or cells: SF9 cells (baculovirus co-infection)
Excerpt: BACULOVIRUS CONSTRUCTIONS: Cyclin E was cloned into pVL1393 (Pharmingen, La Jolla, Calif.) by PCR, with the addition of 5 histidine residues at the amino-terminal end to allow purification on nickel resin. The expressed protein was approximately 45 kDa. CDK2 was cloned into pVL1393 by PCR, with the addition of a haemaglutinin epitope tag at the carboxy-terminal end (YDVPDYAS). The expressed protein was approximately 34 kDa in size.
ENZYME PRODUCTION: Recombinant baculoviruses expressing cyclin E and CDK2 were co-infected into SF9 cells at an equal multiplicity of infection (MOI=5), for 48 hrs. Cells were harvested by centrifugation at 1000 RPM for 10 minutes, then pellets lysed on ice for 30 minutes in five times the pellet volume of lysis buffer containing 50 mM Tris pH 8.0, 1 50 mM NaCl, 1% NP40, 1 mM DTT and protease inhibitors (Roche Diagnostics GmbH, Mannheim, Germany). Lysates were spun down at 15000 RPM for 10 minutes and the supernatant retained. 5 ml of nickel beads (for one liter of SF9 cells) were washed three times in lysis buffer (Qiagen GmbH, Germany). Imidazole was added to the baculovirus supernatant to a final concentration of 20 mM, then incubated with the nickel beads for 45 minutes at 4° C. Proteins were eluted with lysis buffer containing 250 mM imidazole. Eluate was dialyzed overnight in 2 liters of kinase buffer containing 50 mM Tris pH 8.0, 1 mM DTT, 10 mM MgCl2, 100 uM sodium orthovanadate and 20% glycerol. Enzyme was stored in aliquots at −70° C.
IN VITRO KINASE ASSAY: Cyclin E/CDK2 kinase assays were performed in low protein binding 96-well plates (Corning Inc, Corning, N.Y.). Enzyme was diluted to a final concentration of 50 μg/ml in kinase buffer containing 50 mM Tris pH 8.0, 10 mM MgCl2, 1 mM DTT, and 0.1 mM sodium orthovanadate. The substrate used in these reactions was a biotinylated peptide derived from Histone H1 (from Amersham, UK). The substrate was thawed on ice and diluted to 2 μM in kinase buffer. Compounds were diluted in 10% DMSO to desirable concentrations. For each kinase reaction, 20 μl of the 50 µg/ml enzyme solution (1 μg of enzyme) and 20 μl of the 2 μM substrate solution were mixed, then combined with 10 μl of diluted compound in each well for testing. The kinase reaction was started by addition of 50 μl of 2 μM ATP and 0.1 μCi of 33P-ATP (from Amersham, UK). The reaction was allowed to run for 1 hour at room temperature. The reaction was stopped by adding 200 μl of stop buffer containing 0.1% Triton X-100, 1 mM ATP, 5 mM EDTA, and 5 mg/ml streptavidine coated SPA beads (from Amersham, UK) for 15 minutes. The SPA beads were then captured onto a 96-well GF/B filter plate (Packard/Perkin Elmer Life Sciences) using a Filtermate universal harvester (Packard/Perkin Elmer Life Sciences.). Non-specific signals were eliminated by washing the beads twice with 2M NaCl then twice with 2 M NaCl with 1% phosphoric acid. The radioactive signal was then measured using a TopCount 96 well liquid scintillation counter (from Packard/Perkin Elmer Life Sciences).
as §1

Row | Compound | IC50 (recombinant His-CHK1) | IC50 (Cyclin E/CDK2)
1 | Cc1cc(Nc2nc(CCNCC3CC3)cn3c(-c4cnn(C)c4)cnc23)sc1S(=O)(=O)N(C)C | 10 nM | –
2 | Cc1cc(Nc2nc(C3CCCNC3)cn3c(-c4cnn(C)c4)cnc23)sc1S(=O)(=O)N(C)C (stereo not drawn) | 12 nM | –
3 | Cc1cc(Nc2nc(C3=CCCNC3)cn3c(-c4cnn(C)c4)cnc23)sc1S(=O)(=O)C(C)C | 5 nM | 4790 nM
4 | Cc1cc(Nc2nc(C3=CCCNC3)cn3c(-c4cnn(C)c4)cnc23)sc1S(=O)(=O)N(C)C | 7 nM | 5200 nM
5 | Cc1cc(Nc2nccn3c(-c4cnn(C)c4)cnc23)sn1 | 54 nM | –
6 | Cc1cnsc1Nc1nc(CCCN)cn2c(-c3cnn(C)c3)cnc12 | 5 nM | 1910 nM
7 | Cc1cc(Nc2nc(C3=CCCNC3)cn3c(-c4cnn(C)c4)cnc23)sc1-c1cnn(C)c1 | 19 nM | 4590 nM
8 | Cc1cc(Nc2nc(CCN)cn3c(-c4cnn(C)c4)cnc23)sc1C(N)=O | 19 nM | 17900 nM
9 | Cc1cc(Nc2nc(C3=CCCNC3)cn3c(-c4cnn(C)c4)cnc23)sc1S(=O)(=O)N1CCC1 | 12 nM | –
10 | Cc1ncc(Nc2nc(C3=CCCNC3)cn3c(-c4cnn(C)c4)cnc23)s1 | 8 nM | 4630 nM
11 | Cc1cc(Nc2nc(C3=CCCNC3)cn3c(-c4cnn(C)c4)cnc23)sc1C(N)=O | 23 nM | 16200 nM
12 | Cc1cc(Nc2nc(C3=CCCNC3)cn3c(-c4cnn(C)c4)cnc23)sc1C(=O)N(C)C | 16 nM | 24100 nM
13 | Cc1cc(Nc2nc(C3=CCCNC3)cn3c(-c4cnn(C)c4)cnc23)sc1S(=O)(=O)N1CCOCC1 | 7 nM | 5950 nM
14 | Cc1cc(Nc2nc(CCN)cn3c(-c4cnn(C)c4)cnc23)sn1 | 7 nM | 5940 nM
15 | Cn1cc(-c2cnc3c(Nc4ccc(-n5ccnc5)cc4)nc(C4=CCCNC4)cn23)cn1 [drawing 1445] | 97 nM | 12500 nM
16 | Cn1cc(-c2cnc3c(Nc4sncc4C4CCNC4)nccn23)cn1 (stereo not drawn) | 23 nM | –
17 | CCNC(=O)c1sc(Nc2nc(C3=CCCNC3)cn3c(-c4cnn(C)c4)cnc23)cc1C | 15 nM | –
18 | CCNS(=O)(=O)c1sc(Nc2nc(C3=CCCNC3)cn3c(-c4cnn(C)c4)cnc23)cc1C | 10 nM | –
19 | Cn1cc(-c2cnc3c(Nc4ccc5ncccc5c4)nccn23)cn1 | 492 nM | –
